Where two headings read alike, the source gives them in different places.
Experiments:
[1] = system: microvascular endothelial bEND3 cells; test: NO production by endothelial cells, nitrite content in supernatant; assay type: cell-based; details: preincubation 24 hours; for acetylcholine-induced nitrite production: 5-methyltetrahydrofolic acid 1 and 10 μM, sepiapterin 100 μM, p<0.05 vs. saline
Description: The NO production by endothelial cells was assessed by quantification of the nitrite content in the supernatant with a commercially available fluorimetric kit (Cayman Chemicals). Acetylcholine-induced NO production is presented as the difference between stimulated minus the unstimulated nitrite content.

[2] = Competitive superoxide trapping (CST) with DEPMPO in HX/XO system, EPR; assay type: biochemical; details: for k/kd, reaction rate with superoxide relative to reference spin trap DEPMPO / k, reaction rate with superoxide: pH 7.4, 37° C.; for k, reaction rate with superoxide: based on kd=80 (Ms)^−1; for superoxide scavenging, times less potent/slower than ascorbic acid: relative to ascorbic acid
Description: The EPR spectra were recorded at 37° C. on a modified Bruker ESP 300. Spin trap experiments were performed with both HX/XO and eNOS. For HX/XO the solution contained 0.5 mM hypoxanthine, 12.5 mU/ml xanthine oxidase and 50 mM DEPMPO in phosphate buffer (pH 7.4). The eNOS assay contained 250 nM eNOS dimers (0.065 mg protein/ml), 0.5 mM NADPH, 10 μM L-arginine, 1 mM CaCl2, 300 U/ml catmodulin and 50 mM DEPMPO in phosphate buffer (pH 7.4).
The reaction rates with superoxide are given by k for the tested substance and kd for the reference compound DEPMPO respectively.

xanthine oxidase (XO) = xanthine oxidase (XO) (Homo sapiens, UniProt P47989)
Text: Assessment of urate levels (assessed with a uricase-hydrogen peroxide assay) is a standard method to determine enzymatic activity of XO. However, reductive substance, like vitamin C or NUHF, are known to interfere with the urate determination.

eNOS [3] = target: T1, eNOS (Bos taurus, UniProt P29473); test: Superoxide production by eNOS, DEPMPO spin trap EPR
eNOS [4] = target: T1, eNOS; test: NO-production by eNOS, [3H]arginine to [3H]citrulline conversion; assay type: biochemical, bovine; design: made in house; host or cells: E. coli; details: 100 μM final
Description: 5-methyl-(6 S)-tetrahydrofolic acid, and its stereoisomer, 5-methyl-(6R)-tetrahydrofolic acid were used in purities>99.8%. The spin trap, 5-diethoxy-phosphoryl-5-methyl-1-pyrroline-N-oxide (DEPMPO) and all other used chemicals are commercially available.
NOS activity was determined by quantifying the conversion of L-[2,3,4.5-^3H]arginine into L-[2,3,4,5-^3H]-citrulline. […] All measurements were performed in triplicate. After correction for nonspecific activity, eNOS activity was calculated from the percent conversion of [^3H]-arginine into [^3H]-citrulline and expressed as nmoles per mg protein per min.

[5] = cited from earlier work
[6] = cited from earlier work; remark: listed apart in the source
[7] = pterin-repleted eNOS, p<0.05 vs. BH4 alone

xanthine oxidase (XO), sequence (P47989 whole entry, species assumed): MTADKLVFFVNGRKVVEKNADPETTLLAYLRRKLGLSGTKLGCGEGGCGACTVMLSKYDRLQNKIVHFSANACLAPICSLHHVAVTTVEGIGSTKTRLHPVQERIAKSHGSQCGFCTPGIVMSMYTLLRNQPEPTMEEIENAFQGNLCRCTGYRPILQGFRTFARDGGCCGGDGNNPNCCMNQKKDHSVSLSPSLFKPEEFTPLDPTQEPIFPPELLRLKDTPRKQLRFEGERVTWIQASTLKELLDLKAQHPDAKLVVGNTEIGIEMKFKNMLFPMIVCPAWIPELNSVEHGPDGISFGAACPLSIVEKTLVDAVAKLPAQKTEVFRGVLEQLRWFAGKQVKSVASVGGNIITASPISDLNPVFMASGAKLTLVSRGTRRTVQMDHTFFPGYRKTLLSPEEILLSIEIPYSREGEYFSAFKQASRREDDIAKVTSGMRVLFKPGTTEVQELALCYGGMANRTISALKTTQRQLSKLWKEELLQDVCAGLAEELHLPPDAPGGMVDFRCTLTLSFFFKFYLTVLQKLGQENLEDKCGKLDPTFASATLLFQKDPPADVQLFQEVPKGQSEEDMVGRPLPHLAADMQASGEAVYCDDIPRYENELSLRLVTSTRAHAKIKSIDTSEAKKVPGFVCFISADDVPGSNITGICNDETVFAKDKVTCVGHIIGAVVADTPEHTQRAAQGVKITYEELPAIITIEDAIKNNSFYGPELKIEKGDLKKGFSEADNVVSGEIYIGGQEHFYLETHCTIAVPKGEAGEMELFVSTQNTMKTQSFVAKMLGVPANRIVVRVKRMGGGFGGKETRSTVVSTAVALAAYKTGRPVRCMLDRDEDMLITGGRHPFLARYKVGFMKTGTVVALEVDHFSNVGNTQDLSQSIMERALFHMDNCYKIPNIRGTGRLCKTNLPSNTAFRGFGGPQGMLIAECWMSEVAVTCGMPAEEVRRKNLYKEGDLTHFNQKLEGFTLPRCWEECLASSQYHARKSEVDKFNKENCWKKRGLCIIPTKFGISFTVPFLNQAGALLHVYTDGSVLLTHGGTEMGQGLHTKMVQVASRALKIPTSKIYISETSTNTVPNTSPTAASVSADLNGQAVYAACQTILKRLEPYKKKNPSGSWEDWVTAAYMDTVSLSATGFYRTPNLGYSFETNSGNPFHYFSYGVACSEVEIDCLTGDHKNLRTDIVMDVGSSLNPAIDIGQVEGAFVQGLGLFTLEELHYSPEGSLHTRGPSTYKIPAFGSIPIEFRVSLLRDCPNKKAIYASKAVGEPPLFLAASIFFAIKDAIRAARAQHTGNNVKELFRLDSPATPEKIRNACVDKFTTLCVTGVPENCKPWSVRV

## CN1c2c(nc(N)[nH]c2=O)NC[C@@H]1CNc1ccc(C(=O)N[C@@H](CCC(=O)O)C(=O)O)cc1 [5-methyl-(6 S)-tetrahydrofolic acid]
[1]
  acetylcholine-induced nitrite production: significant-further increase in acetylcholine-induced nitrite production
[2]; HX/XO
  k/kd, reaction rate with superoxide relative to reference spin trap DEPMPO: about 175
[2]; HX/XO, listed as L-MTHF
  k/kd, reaction rate with superoxide relative to reference spin trap DEPMPO: 150
[2]
  k, reaction rate with superoxide: 12000 M/s
  superoxide scavenging, times less potent/slower than ascorbic acid: about 20 fold
Xanthine oxidase (XO); 50 μM added at the beginning of the incubation, basal 128±20 μM
  urate level after 60 minutes of incubation: 48.7 ± 1.7 µM
Xanthine oxidase (XO); 50 μM added at the end of the incubation, just prior to urate assessment
  urate level after 60 minutes of incubation: 49.9 ± 1.9 µM
eNOS [3]; pterin-free eNOS
  effect on rate of superoxide production by pterin-free eNOS: does not affect the rate of superoxide production
eNOS [3]; pterin-free eNOS, 25 μM
  radical adduct formation: does not cause significant changes in radical adduct formation
eNOS [3]; pterin-repleted eNOS
  rate of DEPMPO adduct formation: very strong reduction in the rate of DEPMPO adduct formation
eNOS [4]; pterin-free eNOS
  NO production: no significant effect on NO production
eNOS [4]; [7]
  NO production: significant increase in NO production

## CN1c2c(nc(N)[nH]c2=O)NC[C@H]1CNc1ccc(C(=O)N[C@@H](CCC(=O)O)C(=O)O)cc1 [5-methyl-(6R)-tetrahydrofolic acid]
[2]; HX/XO
  k/kd, reaction rate with superoxide relative to reference spin trap DEPMPO: about 175
[2]; HX/XO, listed as D-MTHF
  k/kd, reaction rate with superoxide relative to reference spin trap DEPMPO: 150
[2]
  k, reaction rate with superoxide: 12000 M/s
  superoxide scavenging, times less potent/slower than ascorbic acid: about 20 fold
eNOS [3]; pterin-free eNOS
  effect on rate of superoxide production by pterin-free eNOS: does not affect the rate of superoxide production
eNOS [3]; pterin-repleted eNOS
  rate of DEPMPO adduct formation: very strong reduction in the rate of DEPMPO adduct formation
eNOS [4]; pterin-free eNOS
  NO production: no significant effect on NO production
eNOS [4]; [7]
  NO production: significant increase in NO production

## CN1c2c(nc(N)[nH]c2=O)NCC1CNc1ccc(C(=O)N[C@@H](CCC(=O)O)C(=O)O)cc1 (stereo partly shown) [5-methyltetrahydrofolic acid, 5-methyl-5,6,7,8-tetrahydrofolic acid]
[1]; unstimulated endothelial cells
  nitrite release: did not affect nitrite release
[5]; intra-arterial infusion
  systemic plasma concentrations of 5-methyltetrahydrofolic acid: 250 nM
[2]
  superoxide scavenging, times less potent/slower than ascorbic acid: about 20 fold
Xanthine oxidase (XO)
  effect on rate of urate production by XO: does not affect the rate of urate production
eNOS [3]; partially BH4-repleted eNOS, 25 μM
  amount of superoxide adducts: substantial reduction in the amount of superoxide adducts
eNOS [3]; pterin-repleted eNOS, 50 μM, estimated from figure
  factor by which superoxide production by eNOS is reduced: 2 fold

## N=C(N)NCCC[C@H](N)C(=O)O [arginine, L-arginine]
[2]; HX/XO
  k/kd, reaction rate with superoxide relative to reference spin trap DEPMPO: < 10^−2
[2]; HX/XO, up to 100 mM
  effect on formation of DEPMPO adducts: did not affect the formation of DEPMPO adducts
[2]
  k, reaction rate with superoxide: neglibile

## Nc1nc2ncc(CNc3ccc(C(=O)N[C@@H](CCC(=O)O)C(=O)O)cc3)nc2c(=O)[nH]1 [folic acid, reference compound]
[5]; standard oral suppletion of folic acid 5 mg p.o.
  systemic plasma concentrations of 5-methyltetrahydrofolic acid: ≤ 150 nM

## O=C1O[C@H]([C@@H](O)CO)C(O)=C1O [ascorbic acid, reference compound]
[6]
  k, reaction rate with superoxide, literature value: 270000 M/s
[2]; HX/XO
  k/kd, reaction rate with superoxide relative to reference spin trap DEPMPO: 4400
[2]
  k, reaction rate with superoxide: 350000 M/s

## C[C@H](O)C(=O)C1=Nc2c(nc(N)[nH]c2=O)NC1 [sepiapterin, reference compound]
[1]
  acetylcholine-induced nitrite production: significant-further increase in acetylcholine-induced nitrite production

From patent US6544994B2, “Pharmaceutical preparation for treating or preventing cardiovascular or neurological disorders by modulating of the activity of nitric oxide synthase” (Eprov AG, priority 2000, dated 2003)
